Experiment [1] concerns the target T1, KRAS^G12C (recombinant KRAS mutant G12C, C51S, C80L, C118S) (Homo sapiens, UniProt P01116, C118S/C51S/C80L/G12C).
T1 construct: made in house
Briefly: Covalent binding assay by mass spectrometry (intact mass, % covalent adduct). To be noted: for MS assay [% binding] (KRAS^G12C bound fraction): 25 µM protein, 25 µM compound, room temperature, 2 h. As to the method: (§1) One of the most synthetically accessible compounds, 1,6‐naphthyridin‐5(6H)‐one (1), was prepared (Table 1; Scheme S1). Structurally close to 1, isoquinolin‐1(2H)‐one 2 derivatives were also considered for the exploration of structure‐activity relationships (SAR). To measure the proportion of inhibitor reacting with Cys12 of the KRAS^G12C mutant, the bound/unbound protein ratio was quantified by mass spectrometry (MS). Then, the inhibition potency of these compounds towards KRAS^G12C was evaluated in biochemical assays measuring the activation of GDP‐bound KRAS^G12C or KRAS^WT by SOS1.19 […]
3.4 Covalent binding assay by mass spectrometry
The percentage of covalent adduct formation at KRAS G12C was determined by intact mass determination. To this end, 25 µM recombinant KRAS mutant (G12C , C51S, C80L, C118S) was incubated with 25 µM compound (1% v/v DMSO final concentration) in 50 mM Tris, pH 8.0, 50 mM NaCl at room temperature for 2 h. Reaction mixture (20 µL) was acidified by addi tion of 4% v/v TFA (4 µL). LC-MS analysis was performed using a Waters SYNAPT G2 -S quadrupole time -of-flight mass spectrometer connected to a Waters nanoA CQUITY UPLC system. Samples were loaded onto a 2.1 × 5 mm MassPrep C4 guard column (Waters) and desalted with a short gradient (3 min) of increasing concentration of acetonitrile at a flow rate of 100 µL/min. Spectra were analyzed by using MassLynx v4.1 software and deconvoluted with the MaxEnt1 algorithm. Percent conversion was determined by the ratio of signal intensities of […] and KRASG12C + inhibitor. […]

The target in the next experiment is T2, KRAS^G12C (Homo sapiens, UniProt P01116, G12C).
T2 construct: KRASG12C (aa 1–169, G12C) were produced for the biochemical assay; made in house
Put plainly: Biochemical assay: KRAS^G12C activation by SOS1CAT (HTRF, fluorescent GTP loading). The settings on record: for IC50: 180 min pre-incubation with KRAS before addition of SOS1. As to the method:
as §1
(§2) 3.3 Biochemical activity assays
(§3) Measurement of (i) KRASG12C activation by SOS1CAT and (ii) wild-type KRAS activation by SOS1CAT was performed following the previously described protocol, [19] with a pre-incubation time of the test compound with KRAS proteins extended to 180 min before addi tion of SOS1.
(§4) This assay quantifies SOS1 CAT mediated loading of KRAS G12C–GDP with a fluorescent GTP analogue. Detection of successful loading was achieved by measuring resonance energy transfer from anti-GST-terbium (FRET donor) bound to GST -KRASG12C to the loaded fluorescent GTP analogue (FRET acceptor). The fluorescent GTP analogue EDA –GTP–DY-647P1 [2'/3'-O-(2-aminoethyl-carbamoyl)guanosine-5'-triphosphate labelled with DY-647P1 (Dyomics GmbH, Germany)] was synthesized by Jena Bioscience (Germany) a nd supplied as a 1 mM aqueous solution. A KRASG12C working solution was prepared in assay buffer [10 mM HEPES pH 7.4 (AppliChem), 150 mM NaCl (Sigma), 5 mM MgCl2 (Sigma), 1 mM DTT (Thermo Fisher), 0.05% BSA Fraction V pH 7.0 (ICN Biomedicals), 0.0025% (v/v) Igepal (Sigma)] containing 100 nM GST-KRASG12C and 2 nM anti-GST-terbium (Cisbio, France). A SOS1 CAT working solution was prepared in an assay buffer containing 20 nM SOS1CAT and 200 nM EDA–GTP–DY-647P1. An inhibitor control solution was prepared in an assay buffer containing 200 nM EDA–GTP–DY-647P1 without […]
SOS1CAT. All steps of the assay were performed at 20 °C. A volume of 2.5 µL of the KRASG12C working solution was added to all wells of the test plate using a Multidrop dispenser (Thermo LabSystems). After 180 min, 2.5 µL of the SOS1CAT working solution was added to all wells, except for the inhibitor control solution wells. After 30 min incubation, HTRF was measured. […]
(§5) SYNAPT G2-S quadrupole time-of-flight mass spectrometer connected to a Waters nanoAcquity UPLC system. Samples were loaded on a 2.1 x 5 mm mass prep C4 guard column (Waters) and desalted with a short grad ient (3 min) of increasing concentrations of acetonitrile at a flow rate of 100 µL/min. Spectra were analyzed by using MassLynx v4.1 software and deconvoluted with the MaxEnt1 algorithm. Percent of conversion was determined by the ratio of signal intensiti es of apo-KRAS and KRAS + inhibitor.

The next experiment has as its target T3, KRAS^WT (Homo sapiens, UniProt P01116).
T3 construct: The proteins KRASWT (aa 1–169, wild type), SOS1CAT (aa 564–); made in house
Briefly: Biochemical assay: KRAS^WT activation by SOS1CAT (HTRF, fluorescent GTP loading). The settings on record: 180 min pre-incubation with KRAS before addition of SOS1. As to the method: as §1, §2, §3, §4
SOS1CAT. All steps of the assay were performed at 20 °C. A volume of 2.5 µL of the KRASG12C working solution was added to all wells of the test plate using a Multidrop dispenser (Thermo LabSystems). After 180 min, 2.5 µL of the SOS1CAT working solution was added to all wells, except for the inhibitor control solution wells. After 30 min incubation, HTRF was measured.
In the KRASWT activation by SOS1cat assay, human SOS1CAT mediated loading of GST-KRASWT– GDP was quantified with a fluorescent GTP analogue. The assay was performed as described above for the KRASG12C activation. […]
as §5

On to `C=CC(=O)N1CCC(c2cc3ccc(-c4ccc(F)cc4F)cc3c(=O)[nH]2)C1` (stereo not drawn) [Compound 3, 7-(2,4-Difluorophenyl)-3-[1-(prop-2-enoyl)pyrrolidin-3-yl]isoquinolin-1(2H)-one], for which the “MS assay [% binding] (KRAS^G12C bound fraction)” value in experiment [1] is listed as 34%. Also, the 50% inhibitory concentration (IC50) was 5 µM against KRAS^G12C and above 20 µM against KRAS^WT.

With `C=CC(=O)N1CCC(c2cc3ccc(-c4cc(F)cc(F)c4)cc3c(=O)[nH]2)C1` (stereo not drawn) [Compound 4, 7-(3,5-Difluorophenyl)-3-[1-(prop-2-enoyl)pyrrolidin-3-yl]isoquinolin-1(2H)-one], the “MS assay [% binding] (KRAS^G12C bound fraction)” value in experiment [1] turned out to be 0%. The IC50 on KRAS^G12C and on KRAS^WT was above 20 µM in each case.

With `C=CC(=O)N1CCC(c2cc3ccc(-c4ccccc4CC)cc3c(=O)[nH]2)C1` (stereo not drawn) [Compound 5, 7-(2-Ethylphenyl)-3-[1-(prop-2-enoyl)pyrrolidin-3-yl]isoquinolin-1(2H)-one], the “MS assay [% binding] (KRAS^G12C bound fraction)” value in experiment [1] was found to be 60%. For the same compound, the IC50 against KRAS^G12C is 8 µM; at KRAS^WT, above 20 µM.

Regarding `C=CC(=O)N1CCC(c2cc3ccc(-c4cccc5ncccc45)cc3c(=O)[nH]2)C1` (stereo not drawn) [Compound 6, 3-[1-(Prop-2-enoyl)pyrrolidin-3-yl]-7-(quinolin-5-yl)isoquinolin-1(2H)-one], the “MS assay [% binding] (KRAS^G12C bound fraction)” value in experiment [1] was 20%. Besides, the concentration for half-maximal inhibition (IC50) against KRAS^G12C is above 16 µM; at KRAS^WT, above 20 µM.

With `C=CC(=O)N1CCC(c2cc3cc(Cl)c(-c4c(O)cccc4F)cc3c(=O)[nH]2)C1` (stereo not drawn) [Compound 7, 6-Chloro-7-(2-fluoro-6-hydroxyphenyl)-3-[1-(prop-2-enoyl)pyrrolidin-3-yl]isoquinolin-1(2H)-one], the “MS assay [% binding] (KRAS^G12C bound fraction)” value in experiment [1] is listed as 51%. Further, the IC50 at KRAS^G12C was 14.6 µM; at KRAS^WT it was above 20 µM.

Turning to `C=CC(=O)N1CCC(c2cc3ccc(-c4c(O)cccc4F)cc3c(=O)[nH]2)CC1` [Compound 8], the “MS assay [% binding] (KRAS^G12C bound fraction)” value in experiment [1] is on record as 0%. For the same compound, at KRAS^G12C, the “KRAS^G12C activity, in words” value was “inactive” and the 50% inhibitory concentration (IC50) was above 20 µM. This compound registered an IC50 against KRAS^WT above 20 µM.

As for `C=CC(=O)N1CCCC(c2cc3ccc(-c4c(O)cccc4F)cc3c(=O)[nH]2)C1` (stereo not drawn) [Compound 9], the “MS assay [% binding] (KRAS^G12C bound fraction)” value in experiment [1] amounted to 0%. Moreover, the “KRAS^G12C activity, in words” value at KRAS^G12C is “inactive”. Besides, the IC50 at KRAS^G12C and against KRAS^WT was above 20 µM in each case.

On to `C=CC(=O)N1CCC(c2cc3ccc(-c4c(O)cccc4F)cc3c(=O)n2C)C1` (stereo not drawn) [Compound 10], for which, in experiment [1], the “Ability to bind / react with Cys12 of KRAS^G12C, in words” value is listed as “inability to bind KRAS^G12C” and the “MS assay [% binding] (KRAS^G12C bound fraction)” value was found to be 11%. Moreover, on KRAS^G12C, the “KRAS^G12C activity, in words” value is “inactive” and the 50% inhibitory concentration (IC50) is above 20 µM. Further, the concentration for half-maximal inhibition (IC50) against KRAS^WT was above 20 µM.

With `C=CC(=O)N1CCC(c2nc3ccc(-c4c(O)cccc4F)cc3c(=O)[nH]2)C1` (stereo not drawn) [Compound 11, 6-(2-Fluoro-6-hydroxyphenyl)-2-[1-(prop-2-enoyl)pyrrolidin-3-yl]quinazolin-4(3H)-one], the “MS assay [% binding] (KRAS^G12C bound fraction)” value in experiment [1] is 59%. In addition, the IC50 was 4.9 µM against KRAS^G12C and above 20 µM on KRAS^WT.

Turning to `C=CC(=O)N1CCC(c2cc3cc(O)c(-c4ncccc4F)cc3c(=O)[nH]2)C1` (stereo not drawn) [Compound 12], in experiment [1], the “Ability to bind / react with Cys12 of KRAS^G12C, in words” value is reported as “unable to react with Cys12 of KRAS^G12C” and the “MS assay [% binding] (KRAS^G12C bound fraction)” value amounted to 0%.

These data come from publication PMC7318243, “Computationally Empowered Workflow Identifies Novel Covalent Allosteric Binders for KRAS^G12C” (Chemmedchem, 2020).
